According to US20130150430A1, “Methods for Impairing the P53/HDM2 Auto-Regulatory Loop in Multiple Myeloma Development Using mIR-192, mIR-194 and mIR-215” (THE OHIO STATE UNIVERSITY, priority 2011, published 2013):

Assays:
[1] = system: p53, MDM2 and p21 in MM1s and NCI-H929 cells; assay: Western blot of p53, MDM2, p21 after miRNA or ASO transfection and Nutlin-3a; assay type: cell-based, human; settings: 72 hr after transfection, 12 hr Nutlin-3a (10 μM); for expression of MDM2 protein: both cell lines; for level of p53 and p21: vs Scr-transfected cells, p<0.001
Experimental: FIG. 4A: MM1s and NCIH929 cells (pre-miRNA-192, pre-miRNA-194, pre-miRNA-215, Scr sequence-transfected) were harvested at 72 hr after transfection and 12 hr Nutlin-3a treatment (10 μM). Whole cell lysates were subjected to Western blotting using p53, MDM2, p21, and Gapdh antibodies. Densitometric analysis showing the effect of miR-194 (white bars), miR-192 (grey bars), miR-215 (black bars) compared to Scr sequence (green bars) transfected cells of endogenous p53, MDM2 and p21 in MM1s (FIG. 4B) and NCI-H929 (FIG. 4C) Nutlin-3a treated.
FIG. 4D: Immununoblot analysis showing p53, MDM2 and p21 protein expression after 48 hr of miR192, miR-194, miR-215 (pool) and Scr ASOs transfection in MM1s and NCI-H929 cells after 12 hr of treatment with 10 μM Nutlin-3a.
Samples were extracted in 15 mM Tris.Cl, pH 7.5/120 mM NaCl/25 mM KCl/2 mM EGTA/0.1 mM DTT/0.5% Triton X-100/[…] leupeptin/0.5 mM PMSF. Total protein (35 μg) from each sample was separated on a 4-20% Tris-HCl-Criterion precast gel Bio-Rad (cat#345-0032, Hercules, Calif.) and transferred to a poly(vinylidene difluoride) filter (Millipore). The filter was blocked in 5% nonfat dry milk, incubated with the specific antibody, washed, and probed with secondary antibody IgG conjugated to horseradish peroxidase (Santa Cruz Biotechnology), and developed with enhanced chemiluminescence (Amersham Pharmacia). Immunoblot analyses were performed using the following antibodies: p53 (sc-53394, Santa Cruz Biotechnology), MDM2 (sc-965, Santa Cruz Biotechnology), phospho-MDM2 (Cat#3521, Cell Signaling), c-MYC (cs-40, Santa Cruz Biotechnology), IGF-1 (sc-9013, Santa Cruz Biotechnology), IGF-1R (Cat#3027, Cell Signaling), total-Akt (Cat#9272, Cell signaling), phospho-Akt (Cat#4060, Cell Signaling), total-S6 (Cat#2217, Cell Signaling), phospho-S6 (Cat#2211, Cell Signaling), p21 (sc-817, Santa Cruz Biotechnology), α-PUMA (Cat#4976, Cell Signaling), GAPDH (Cat#2118, Cell Signaling). Filters were reprobed with enzyme-conjugated antibodies to GFP and β-actin (Santa Cruz Biotechnology).
MM cells (from MM subjects or from cell lines) non-transfected or transfected with pre- or ASOs miR-192, miR-215, miR-194 and Scr sequence as described above, were treated with MDM2 inhibitor (Nutlin3a and MI-219). Fresh CD138+ primary PCs isolated from new diagnosed MM subjects as previously described were maintained in culture for 24 hr and then treated for 24 hr with 10 μM Nutlin-3a (Cayman Chemical Company) or vehicle (DMSO). For transfected cells at 24 hrs after transfection MM cells were treated with 10 μM Nutlin-3a (Cayman Chemical Company) or DMSO vehicle only at different time points. […]

GFP+/Luc+ MM1S cells = assay: In vivo homing model, iv injected transfected MM1S cells plus weekly iv miRNA; design: species or system NOD-SCID mice; settings: for tumor burden (bioluminescence imaging): 5 wk post-injection, 10 μg iv weekly for 4 wk, vs Scr; for bone marrow engraftment of MM1s (human CD-138+ cells by FACS): 35 days after injection, Scr-treated mice ~25±15%
Experimental: FIG. 7C: In vivo confocal imaging. 8×10^6GFP+/Luc+ MM1s cells were transfected using either pre-miRNA-192, miR-194, miR-215 and Scr RNA oligos and then iv injected into mice immediately after transfection. After 1 wk the mice were miRNAs iv injected (10 ug) once a wk for 4 wk and the bioluminescence intensity was assessed before every injection.
FIG. 7D: Representative bioluminescence imaging (BLD after 5 wk from the injection.
FIG. 7E: Bone marrow cells from the mice used for the experiment were isolated and human CD-138 positive cells (engrafted cells) were detected using anti-CD-138 antibody by flow cytometry (P2 fraction).
As shown in FIG. 7B and FIG. 21C, IGF-1 (50 ng/ml) stimulated migration of MM cells, MM1s and RPMI-8226. To further examine the role of miRNA-192, miR-215 and miR-194 in MM cells, the inventors investigated the effect of these miRNAs on migration in vivo, using a homing model (Roccaro et al., Blood, 113:6669-6680 (2009)). Nine NOD-SCID mice (for each group) were intravenously injected with 8×10^6 of pre-miRNA-192-, -194 and -215 or Scr probe-transfected GFP^+/Lue^+ MM1S cells. One wk later, mice were iv-injected every week for 4 wk with an individual miRNA or Scr dissolved in PBS (10 μg for each mouse).
Mice were injected with 75 mg/kg of Luciferin (Xenogen, Hopkington, Mass.), and tumor growth was detected by bioluminescence 10 min after the injection. The home-built bioluminescence system used an electron multiplying CCD (Andor Technology Limited, Belfast, United Kingdom) with an exposure time of 30 sec, and an electron multiplication gain of 500 voltage gain×200, 5-by-5 binning, and with background subtraction. Images were analyzed using Image-J software (National Institutes of Health, Bethesda, Md.).
Animal studies were performed according to institutional guidelines. For the sub-cutaneous engraftment model 8 wk old male athymic nu/nu mice (Charles River Laboratories, Wilmington, Mass.) were maintained in accordance with IACUC procedures and guidelines. 8×10^6 of GFP/Luc+MM1s cells were suspended in 0.10 ml of extracellular matrix gel (BD Biosciences) and the mixture was injected subcutaneously into the right flank. […] Measurements of xenograft growth were performed, and tumor volume was estimated using the formula 4/3 a (L*W*H/8). Tumor size was assessed by digital caliper. […] Tumor size was assessed every 7 days by, bioluminescence images. Thirty-five days after injection, mice were analyzed by bioluminescence images and then sacrificed. MM1s bone marrow isolated cells were stained with anti-human CD-138 antibody (BD) and analyzed by FACS analysis. Statistical significance of differences between control and treated animals was evaluated using Student's t test. […]

Row | Substance | expression of MDM2 protein [1] | level of p53 and p21 [1] | tumor burden (bioluminescence imaging) (GFP+/Luc+ MM1S cells) | bone marrow engraftment of MM1s (human CD-138+ cells by FACS) (GFP+/Luc+ MM1S cells) [%]
1 | miR-215: microRNA, p53-activated, down-regulated in MM; transfected as miRNA precursor (Ambion) or lentivector; SEQ ID NO:58 (AUGACCUAUGAAUUGACAGAC; listed as RNA, chemistry not given here; listed as Homo sapiens) | dramatically decreased | significantly increased | nearly nonexistent | 2±2
2 | miR-192: microRNA, p53-activated, down-regulated in MM; transfected as miRNA precursor (Ambion) or lentivector; SEQ ID NO:56 (CUGACCUAUGAAUUGACAGCC; listed as RNA, chemistry not given here; listed as Homo sapiens) | dramatically decreased | significantly increased | nearly nonexistent | 4±2
